Assay results: patent US10045985B2, “Heteroaryl compounds as BTK inhibitors and uses thereof” (Merck Patent GmbH, priority 2015, dated 2018)

Columns and labels:
full-length human BTK = molecular target: T1, full-length human BTK (Homo sapiens, UniProt Q06187); assay: Assay A: microfluidic off-chip mobility shift assay for potency against BTK enzyme; format: biochemical; conditions: 90 min at 27° C.
T1 construct: full-length human BTK (08-080) from CarnaBio USA, Inc; purchased CarnaBio USA, Inc., Natick, Mass; 08-080
From the text: Assay A: Microfluidic Off-Chip Mobility Shift Assay Protocol for Potency Assessment Against BTK Enzyme
The protocol below describes microfluidic, off-chip mobility shift kinase assay to measure inherent potency of compounds against BTK enzyme. The mechanics of the assay platform are best described by the vendor (Caliper Life Sciences, a PerkinElmer Company, Hopkinton, Mass.) on their website at the following URL:
Briefly, 2.5× stocks of full-length human BTK (08-080) from CarnaBio USA, Inc., Natick, Mass., 1.6×ATP and appropriate kinKDR peptide substrate (FITC-AHA-EEPLYWSFPAKKK-NH2; developed in-house) were prepared in kinase reaction buffer consisting of 25 mM MgCl2, 0.015% Brij-35 (30%), 100 mM Hepes, pH 7.5, and 10 mM DTT.
5 uL of enzyme buffer and 7.5 uL of ATP/kinKDR peptide substrate mix were added to Matrix (#115304) 384-well, sterile, polypropylene plates (Thermo Fisher Scientific, Hudson, N.H.) with 125 nL of serially diluted compounds prepared in 100% DMSO, and incubated for 90 min. at 27° C. following the incubation period, reactions were stopped by adding 60 uL stop buffer consisting of 100 mM Hepes, pH 7.5, 0.015% Brij-35 (30%), 0.277% Coating Reagent #3 (Caliper Life Sciences, Mountain View, Calif.), 5% DMSO. Stopped reactions were monitored at −2 PSI, −3000 V/−700 V in a LabChip 3000 plate reader from Caliper Life Sciences, a PerkinElmer Company (Hopkinton, Mass.), and the activity was measured by off-chip mobility shift assay measuring the charge/mass difference between substrate and product resulting from peptide phosphorilation. IC50 and efficacy were determined by plotting log [Inhibitor] vs. % Activity in GeneData Screener (Basel, Switzerland).

[1] = molecular target: T2, BTK C481S enzyme (His-TEV-hsBTK(328-659)(C481S)) (Homo sapiens, UniProt Q06187, C481S); assay: Assay B: microfluidic off-chip mobility shift assay for potency against BTK C481S enzyme; format: biochemical; conditions: 90 min at 25° C.
T2 construct: His-TEV-hsBTK(328-659)(C481S); His (N); TEV cleavage site (N)
From the text: Assay B: Microfluidic Off-Chip Mobility Shift Assay Protocol for Potency Assessment Against BTK C481S Enzyme
The protocol below describes a microfluidic, off-chip mobility shift kinase assay to measure inherent potency of compounds against BTK C481S enzyme. The mechanics of the assay platform are described by the vendor (PerkinElmer, Hopkinton, Mass.) on their website at the following URL: http://caliperls.com.
Briefly, 2.5× stocks of His-TEV-hsBTK(328-659)(C481S) from the Merck Serono Protein Purification Laboratory in Darmstadt, Germany (PCS, Q27/234), 1.6×ATP and appropriate KinKDR peptide substrate (FITC-AHA-EEPLYWSFPAKKK-NH2; Tufts University Core Facility custom synthesis) were prepared in kinase reaction buffer consisting of 25 mM MgCl2, 0.015% Brij-35 (30%), 100 mM HEPES, pH 7.5, and 10 mM DTT.
5 uL of enzyme buffer and 7.5 uL of ATP/KinKDR peptide substrate mix were added to Matrix (#4315) 384-well, sterile, flat-bottom polypropylene plates (Thermo Fisher Scientific, Hudson, N.H.) with 125 nL of serially diluted compounds prepared in 100% DMSO, and incubated for 90 min. at 25° C. Following the incubation period, reactions were terminated by adding 65 uL quench buffer consisting of 100 mM HEPES, pH 7.5, 0.015% Brij-35 (30%), 0.277% Coating Reagent #3 (PerkinElmer, Mountain View, Calif.), 5% DMSO. Terminated reactions were monitored at −2 PSI, −3000 V/−700 Volts in a LabChip 3000 plate reader from Caliper Life Sciences, a PerkinElmer Company (Hopkinton, Mass.), and the activity was quantified by laser-induced fluorescence measuring the charge/mass difference between substrate and product resulting from peptide phosphorylation. IC50 and efficacy were determined by plotting log [Inhibitor] vs. % Activity in GeneData Screener (Basel, Switzerland).

T2 sequence (Q06187 328-659 C481S): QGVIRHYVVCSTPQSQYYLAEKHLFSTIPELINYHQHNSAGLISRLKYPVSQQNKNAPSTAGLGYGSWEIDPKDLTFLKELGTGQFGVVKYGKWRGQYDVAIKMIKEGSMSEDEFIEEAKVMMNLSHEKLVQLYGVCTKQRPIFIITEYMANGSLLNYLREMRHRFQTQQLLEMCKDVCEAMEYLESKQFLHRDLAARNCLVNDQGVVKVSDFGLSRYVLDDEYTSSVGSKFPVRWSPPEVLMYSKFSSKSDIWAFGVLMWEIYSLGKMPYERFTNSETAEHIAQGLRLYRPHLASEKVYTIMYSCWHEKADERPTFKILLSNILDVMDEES
T1 sequence (Q06187 whole entry): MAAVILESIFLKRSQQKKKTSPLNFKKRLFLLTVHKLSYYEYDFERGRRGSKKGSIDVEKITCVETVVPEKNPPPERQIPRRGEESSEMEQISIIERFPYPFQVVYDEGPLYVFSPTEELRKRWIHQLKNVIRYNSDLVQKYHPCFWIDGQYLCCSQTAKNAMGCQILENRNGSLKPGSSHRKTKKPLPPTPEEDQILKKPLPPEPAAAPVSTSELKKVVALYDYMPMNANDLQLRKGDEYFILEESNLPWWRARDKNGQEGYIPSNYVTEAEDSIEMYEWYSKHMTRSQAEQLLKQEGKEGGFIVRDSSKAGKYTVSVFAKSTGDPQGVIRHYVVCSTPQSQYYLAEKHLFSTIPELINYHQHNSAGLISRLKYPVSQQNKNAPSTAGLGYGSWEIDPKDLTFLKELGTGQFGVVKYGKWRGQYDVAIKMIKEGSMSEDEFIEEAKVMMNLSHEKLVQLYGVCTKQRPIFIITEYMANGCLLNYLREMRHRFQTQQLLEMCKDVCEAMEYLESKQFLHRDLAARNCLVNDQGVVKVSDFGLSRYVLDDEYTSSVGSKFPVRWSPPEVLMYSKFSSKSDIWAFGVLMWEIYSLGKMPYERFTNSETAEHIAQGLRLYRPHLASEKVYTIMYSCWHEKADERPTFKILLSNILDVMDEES

Structure (SMILES)	IC50 (full-length human BTK)	IC50 [1]
COCCOc1ccc(Nc2ncc(F)c(NC3CCCC(NC(=O)c4ccc(C(C)(C)C)cc4)C3)n2)cc1 (racemic) [Compound 3, 4-(tert-butyl)-N-(3-((5-fluoro-2-((4-(2-methoxyethoxy)phenyl)amino)pyrimidin-4-yl)amino)cyclohexyl)benzamide]	0.1 to 1 µM	0.1 to 1 µM
COCCOc1ccc(Nc2ncc(F)c(NC3CCCC(NC(=O)CNc4cccc(Cl)c4)C3)n2)cc1 (racemic) [Compound 5]	1 to 5 µM	1 to 5 µM
COCCOc1ccc(Nc2ncc(F)c(N3CCCC(CNC(=O)c4ccc(C(C)(C)C)cc4)C3)n2)cc1 (racemic) [Compound 7, 4-(tert-butyl)-N-((1-(5-fluoro-2-((4-(2-methoxyethoxy)phenyl)amino)pyrimidin-4-yl)piperidin-3-yl)methyl)benzamide]	> 5 µM	
COCCOc1ccc(Nc2ncc(F)c(NCC3CCN(C(=O)c4ccc(C(C)(C)C)cc4)C3)n2)cc1 (racemic) [Compound 8, (4-(tert-butyl)phenyl)(3-(((5-fluoro-2-((4-(2-methoxyethoxy)phenyl)amino)pyrimidin-4-yl)amino)methyl)pyrrolidin-1-yl)methanone]	> 5 µM	
COCCOc1ccc(Nc2ncc(F)c(N3CCC(CNC(=O)c4ccc(C(C)(C)C)cc4)C3)n2)cc1 (racemic) [Compound 17, 4-(tert-butyl)-N-((1-(5-fluoro-2-((4-(2-methoxyethoxy)phenyl)amino)pyrimidin-4-yl)pyrrolidin-3-yl)methyl)benzamide]	> 5 µM	
COCCOc1ccc(Nc2ncc(F)c(N[C@@H]3CCC[C@@H](NC(=O)c4ccc(C(C)(C)C)cc4)C3)n2)cc1 (racemic) [Compound 19, 4-(tert-butyl)-N-(trans-3-((5-fluoro-2-((4-(2-methoxyethoxy)phenyl)amino)pyrimidin-4-yl)amino)cyclohexyl)benzamide]	< 0.1 µM	< 0.1 µM
COCCOc1ccc(Nc2ncc(F)c(NC3CCCC(NC(=O)c4cc5c(s4)CCCC5)C3O)n2)cc1 (racemic) [Compound 26]	< 0.1 µM	< 0.1 µM
COCCOc1ccc(Nc2ncc(F)c(NC3CCCC(NC(=O)c4cc(C(C)(C)C)on4)C3O)n2)cc1 (racemic) [Compound 27]	0.1 to 1 µM	0.1 to 1 µM
COCCOc1ccc(Nc2ncc(F)c(N3CCC[C@@H](NC(=O)c4ccc(C(C)(C)C)cc4)C3)n2)cc1 [Compound 1, (R)0-4-(tert-butyl)-N-(1-(5-fluoro-2-((4-(2-methoxyethoxy)phenyl)amino)pyrimidin-4-yl)piperidin-3-yl)benzamide]	> 5 µM	
COCCOc1ccc(Nc2ncc(F)c(N3CCC[C@@H](NC(=O)CNc4cccc(Cl)c4)C3)n2)cc1 [Compound 2, (R)-2-((3-chlorophenyl)amino)-N-(1-(5-fluoro-2-((4-(2-methoxyethoxy)phenyl)amino)pyrimidin-4-yl)piperidin-3-yl)acetamide]	> 5 µM	> 5 µM
COCCOc1ccc(Nc2ncc(F)c(Nc3cccc(NC(=O)CNc4cccc(Cl)c4)c3)n2)cc1 [Compound 4, 2-((3-chlorophenyl)amino)-N-(3-((5-fluoro-2-((4-(2-methoxyethoxy)phenyl)amino)pyrimidin-4-yl)amino)phenyl)acetamide]	1 to 5 µM	0.1 to 1 µM
COCCOc1ccc(Nc2ncc(F)c(Nc3cccc(NC(=O)c4ccc(C(C)(C)C)cc4)c3)n2)cc1 [Compound 6]	1 to 5 µM	1 to 5 µM
COCCOc1ccc(Nc2ncc(F)c(N3CC[C@H](NC(=O)c4ccc(C(C)(C)C)cc4)C3)n2)cc1 [Compound 9, (S)-4-(tert-butyl)-N-(1-(5-fluoro-2-((4-(2-methoxyethoxy)phenyl)amino)pyrimidin-4-yl)pyrrolidin-3-yl)benzamide]	> 5 µM	
COCCOc1ccc(Nc2ncc(F)c(NC3CCCC(NC(=O)c4ccc(N(C)C)cc4)C3)n2)cc1 (stereo not shown) [Compound 11, 4-Dimethylamino-N-(3-{5-fluoro-2-[4-(2-methoxy-ethoxy)-phenylamino]-pyrimidin-4-ylamino}-cyclohexyl)-benzamide]	0.1 to 1 µM	0.1 to 1 µM
COCCOc1ccc(Nc2ncc(F)c(NC3CCCC(NC(=O)c4ccc(C(C)(C)O)cc4)C3)n2)cc1 (stereo not shown) [Compound 12, N-(3-{5-Fluoro-2-[4-(2-methoxy-ethoxy)-phenylamino]-pyrimidin-4-ylamino}-cyclohexyl)0-4-(1-hydroxy-1-methyl-ethyl)-benzamide]	0.1 to 1 µM	0.1 to 1 µM
COCCOc1ccc(Nc2ncc(F)c(NC3CCCC(NC(=O)Cc4ccc(C(C)(C)C)cc4)C3)n2)cc1 (stereo not shown) [Compound 13, 2-(4-tert-Butyl-phenyl)-N-(3-{5-fluoro-2-[4-(2-methoxy-ethoxy)-phenylamino]-pyrimidin-4-ylamino}-cyclohexyl)-acetamide]	> 5 µM	
COCCOc1ccc(Nc2ncc(F)c(NC3CCCC(NC(=O)c4coc(-c5ccccc5)n4)C3)n2)cc1 (stereo not shown) [Compound 14, 2-Phenyl-oxazole-4-carboxylic acid (3-{5-fluoro-2-[4-(2-methoxy-ethoxy)-phenylamino]-pyrimidin-4-ylamino}-cyclohexyl)-amide]	> 5 µM	
COCCOc1ccc(Nc2ncc(F)c(N3CCCC4(CCN(C(=O)c5ccc(C(C)(C)C)cc5)C4)C3)n2)cc1 (stereo not shown) [Compound 15, (4-(tert-butyl)phenyl)(7-(5-fluoro-2-((4-(2-methoxyethoxy)phenyl)amino)pyrimidin-4-yl)-2,7-diazaspiro[4.5]decan-2-yl)methanone]	> 5 µM	
COCCOc1ccc(Nc2ncc(F)c(N3CC4CN(C(=O)c5ccc(C(C)(C)C)cc5)CC4C3)n2)cc1 (stereo not shown) [Compound 18, (4-(tert-butyl)phenyl)(5-(5-fluoro-2-((4-(2-methoxyethoxy)phenyl)amino)pyrimidin-4-yl)hexahydropyrrolo[3,4-c]pyrrol-2(1H)-yl)methanone]	> 5 µM	
COCCOc1ccc(Nc2ncc(F)c(N3CCC4CN(C(=O)c5ccc(C(C)(C)C)cc5)CC43)n2)cc1 (stereo not shown) [Compound 20, (4-(tert-butyl)phenyl)(1-(5-fluoro-2-((4-(2-methoxyethoxy)phenyl)amino)pyrimidin-4-yl)hexahydropyrrolo[3,4-b]pyrrol-5(1H)-yl)methanone]	> 5 µM	
COCCOc1ccc(Nc2ncc(F)c(N3CCCC4(CCCN(C(=O)c5ccc(C(C)(C)C)cc5)C4)C3)n2)cc1 (stereo not shown) [Compound 21, (4-(tert-butyl)phenyl)(8-(5-fluoro-2-((4-(2-methoxyethoxy)phenyl)amino)pyrimidin-4-yl)-2,8-diazaspiro[5.5]undecan-2-yl)methanone]	> 5 µM	
COCCOc1ccc(Nc2ncc(F)c(N[C@@H]3CCC[C@@H](NC(=O)c4ccc(C(C)(C)C)cc4)C3)n2)cc1 [Compound 22, 4-(tert-butyl)-N-((1R,3R)-3-((5-fluoro-2-((4-(2-methoxyethoxy)phenyl)amino)pyrimidin-4-yl)amino)cyclohexyl) benzamide]	< 0.1 µM	
COCCOc1ccc(Nc2ncc(F)c(N[C@H]3CCC[C@H](NC(=O)c4ccc(C(C)(C)C)cc4)C3)n2)cc1 [Compound 23, 4-(tert-butyl)-N-((1S,3S)-3-((5-fluoro-2-((4-(2-methoxyethoxy)phenyl)amino)pyrimidin-4-yl)amino)cyclohexyl)benzamide]	1 to 5 µM	
COCCOc1ccc(Nc2ncc(F)c(N[C@H]3CCC[C@H](NC(=O)c4ccc(C(C)(C)C)cc4)[C@H]3O)n2)cc1 [Compound 25]	1 to 5 µM	
